{"source": "patent US20110136728A1", "about": "“METHODS OF INCREASING BONE FORMATION USING LEPTIN-RELATED PEPTIDES” (priority 2009, published 2011)", "key": {"[1]": {"design": "species or system male Swiss Webster mice", "conditions": "mouse, in vivo", "description": "Six week-old male Swiss Webster mice weighing approximately 30 g were obtained from Taconic Farms (Germantown, N.Y., USA). The animals were housed three per cage in polycarbonate cages fitted with stainless steel wire lids and air filters, and supported on ventilated racks (Thoren Caging Systems, Hazelton, Pa., USA) in the Albany Medical College Animal Resources Facility. The mice were maintained at a constant temperature (24° C.) with lights on from 07:00 to 19:00 h, and allowed food and water ad libitum until used for uptake studies. Mouse [[…]]OB3 was prepared commercially as a C-terminal amide by Bachem (Torrance, Calif., USA). For oral delivery, mouse [[…]]-OB3 was dissolved in either phosphate buffered saline (PBS, pH 7.2) or 0.3% […] Therapeutics, San Diego, Calif. USA) reconstituted in water, at a concentration of 1 mg/200 ul and administered by gavage. Is has been previously shown that this concentration to be optimum for regulating energy expenditure, glycemic control, and insulin sensitivity in two genetically obese mouse models. (See Grasso P. et al., Regulatory Pept. 101:123-9 (2001); Grasso P. et al., Regulatory Pept. 85:93-100 (1999); Grasso P. et al., Endocrinology 138:1413-8 (1997); Grasso P. et al., Diabetes 48:2204-9 (1999); and Rozhayskaya-Arena M. et al., Endocrinology 141:2501-7 (2000)). At time zero (0), 200 μl mouse [[…]]-OB3 in PBS or 0.3% […]® was delivered by gavage to each mouse. Following peptide administration, the mice were transferred to separate cages for the designated time period. Five, 10, 20, 40, 60, or 120 min after peptide delivery, the mice (six per time point) were anesthetized with isoflurane (5%) and exsanguinated by cardiac puncture. Euthanasia was confirmed by cervical dislocation. The blood was collected in sterile nonheparinized plastic centrifuge tubes and allowed to stand at room temperature for 1 h. The clotted blood was rimmed from the walls of the tubes with sterile wooden applicator sticks. Individual serum samples were prepared by centrifugation for 30 min at 2600×g in an Eppendorf […], A-4-38 rotor (Eppendorf North America, Westbury, N.Y., USA), The serum samples in each experimental group (n=6) were pooled and stored frozen until assayed for mouse [[…]]-OB3 content by competitive ELISA. Mouse [[…]]-OB3 content of the pooled serum samples was measured by a competitive ELISA developed and validated in our laboratory as previously described. (See Novakovic Z. et al., Regulatory Pept. 154:107-11 (2009)). Serum concentrations of mouse [[…]]OB3 vs. time following oral delivery were plotted using the graphics program SigmaPlot 8.0 (SPSS Science, Chicago, Ill., USA). The area under the curve (AUC) was calculated with a function of this program. The lowest AUC value obtained was arbitrarily set at 1.0. Relative bioavailabilty was determined by comparing all other AUC values to 1.0. The period of time required for the serum concentration of mouse [[…]]-OB3 to be reduced to exactly one-half of the maximum concentration achieved following oral administration of mouse [[…]]-OB3 in the absence or presence of […]® was calculated using the following equation: […] Clearance of mouse [[…]]-OB3 from the plasma following oral delivery was calculated from the AUC using the following equation: CL=Dose/AUC Since the half-life of a drug is inversely related to its clearance from the plasma and directly proportional to its volume of distribution, the apparent volume of distribution of mouse [[…]]-OB3 following oral delivery was calculated from its half-life and clearance using the following equation: […] The relative oral bioavailability of mouse [[…]]-OB3 delivered in […]® was compared to the relative bioavailabilities of intranasal and three commonly used injection methods of delivery recently reported. (See Oliveira Jr. V X. et al., J. Pept. Sci. 14:617-25 (2008)). […]"}, "[2]": {"system": "ob/ob mouse model", "assay": "Earlier study of OB3 and D-amino acid-substituted OB3 analogs: body weight gain, food and water intake, blood glucose", "type": "in vivo", "text": "Single-point D-amino acid substitution was used to study the structure-function relationships of each amino acid residue in OB3, and to increase its efficacy. The restricted domain represented by OB3 contains a functional epitope, which has the ability to mimic at least some of the effects of leptin on energy balance and glucose homeostasis.\nThe design of peptide ligands involved the introduction of conformational constraints into native sequences by techniques that include, but are not limited to, D-amino acid substitution or cyclization. (Hruby and Bonner, Methods Mol Biol. 35:201-40 (1994)). Systematic replacement of L-amino acids by their D-amino acid isoforms was used to determine the stereostructural requirements of specific residues in a peptide for peptide-receptor interaction, and to assess the contribution of certain secondary structural motifs, e.g., α-helix or β-turn, to the bioactivity of the peptide. (Hruby, Biopolymers 33(7):1073-82 (1993) and Hruby, Life Sci. 52(10):845-55 (1993)). This approach increased peptide resistance to enzymatic hydrolysis, and to enhance the properties of biologically active peptides, including receptor binding, functional potency, and duration of action. (See Fauchere et al., Adv. Drug Res., 23:127-139 (1992); Doherty et al., J. Med. Chem., 36:2585-2594 (1993); Kirby et al., J. Med. Chem., 36:3802-3808 (1993); Morita et al., FEBS Lett., 353:84-88 (1994)).\n(See Rozhayskaya-Arena M, et al., Endocrinology 141:2501-2517 (2000); Grasso P et al., Regulatory Pep. 101:123-129 (2001))."}, "[3]": {"system": "ob/ob mouse model", "conditions": "Grasso et al., Regu. Pept. 101:123-129 (2001); cited from earlier work"}}, "note": "Non-standard residues stand in square brackets, D forms with d. Residues, ends and D or L forms follow the SMILES beside them."}
{"smiles": "CC(C)C[C@@H](NC(=O)[C@H](CO)NC(=O)[C@H](CS)NC(=O)[C@@H](N)CO)C(=O)N1CCC[C@H]1C(=O)N[C@@H](CCC(N)=O)C(=O)N[C@H](C(N)=O)[C@@H](C)O", "note": "[mouse [D-Leu-4]-OB3] (H-SCS[dL]PQT-NH2; N-terminus assumed)", "values": [{"measurement": "Relative oral bioavailability", "setting": "[1]", "value": 52.2, "unit": "%"}, {"measurement": "bioavailability", "setting": "[1]; Relative oral bioavailability", "value": 47.3, "unit": "%"}, {"measurement": "Maximum uptake (Cmax) in Intravail relative to PBS", "setting": "[1]; po, 1 mg", "value": 3.6, "unit": "fold"}, {"measurement": "Plasma CL in PBS compared with Intravail", "setting": "[1]; po, 1 mg", "value": "four times faster"}, {"measurement": "Tmax", "setting": "[1]; po, 1 mg", "value": 50, "unit": "min"}, {"measurement": "t1/2 (serum half-life)", "setting": "[1]; po, 1 mg", "value": 20.15, "unit": "min"}, {"measurement": "tmax", "setting": "[1]; po, 1 mg", "value": 50, "unit": "min"}, {"measurement": "effectiveness compared to the other D-amino acid-substituted analogs", "setting": "[2]; compared to OB3, in most of the parameters measured", "value": "more effective than the other D-amino acid-substituted analogs"}, {"measurement": "Water intake", "setting": "[2]; mouse, in vivo", "value": "significantly reduced water intake"}, {"measurement": "anorexigenic activity compared with OB3", "setting": "[2]; mouse, in vivo", "value": "greater anorexigenic activity than OB3"}, {"measurement": "antihyperglycemic effect and its time course", "setting": "[2]; mouse, in vivo", "value": "lowered blood glucose to levels seen in nondiabetic wild type mice within two days of peptide treatment"}, {"measurement": "potency in reducing body weight gain relative to native OB3", "setting": "[2]; mouse, in vivo", "value": 2.6, "unit": "fold"}, {"measurement": "tissue sensitivity to insulin", "setting": "[3]", "value": "increases tissue sensitivity to insulin"}]}
